Laboratory results published in PubChem BioAssay AID2060620 (Molecular Pharmacology Branch, DTP, NCI, 2025).

Tested on: 328373-195-R-J1-PDC complex spheroids, viability % test/control
Test: Anticancer human tumor 328373-195-R-J1-PDC patient-derived head and neck squamous carcinoma cell line growth inhibition [CLK]
Conditions: for IC50: curve of first compound; for viability, T/C: stronger effect = lower value; active = viability on the fitted dose curve at most 10% of control; inactive = the rest
Summary of the method: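 Multi-cell-type spheroids combined patient-derived tumor cells with HUVEC endothelial cells and human mesenchymal stem cells. Paired agents were dosed in half-log steps down from about clinical Cmax, or from 10 microM where Cmax was unknown.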
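Also: spheroids exposed to the agents for 7 days.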

C=CC(=O)Nc1cc(Nc2nccc(-c3cn(C)c4ccccc34)n2)c(OC)cc1N(C)CCN(C)C + CNC(=O)c1ccc(Nc2nc(OC3CCCC3)c3c(-c4ccc5nc(C)oc5c4)c[nH]c3n2)c(OC)c1
39.4 nM: IC50 (second compound 0.0316 µM)
inactive: viability, T/C (second compound 0.0316 µM, first compound 0.000949 µM) 53.9% | viability, T/C (second compound 0.0316 µM, first compound 0.003 µM) 60.2% | viability, T/C (second compound 0.0316 µM, first compound 0.00949 µM) 57.1% | viability, T/C (second compound 0.0316 µM, first compound 0.03 µM) 50.1% | viability, T/C (second compound 0.0316 µM, first compound 0.0949 µM) 44% | viability, T/C (second compound 0.0316 µM, first compound 0.3 µM) 28.7% | viability, T/C (second compound 0.1 µM, first compound 0.000949 µM) 12.7% | viability, T/C (second compound 0.1 µM, first compound 0.003 µM) 11.5% | viability, T/C (second compound 0.316 µM, first compound 0.000949 µM) 10.9% | viability, T/C (second compound 1 µM, first compound 0.000949 µM) 9.22% | viability, T/C (second compound 1 µM, first compound 0.003 µM) 11.8% | viability, T/C (second compound 3.16 µM, first compound 0.000949 µM) 10.8% | viability, T/C (second compound 3.16 µM, first compound 0.003 µM) 9.2% | viability, T/C (second compound 10 µM, first compound 0.000949 µM) 12% | viability, T/C (second compound 10 µM, first compound 0.003 µM) 10.6% | viability, T/C (second compound 10 µM, first compound 0.00949 µM) 11.6%
active: viability, T/C (second compound 0.1 µM, first compound 0.00949 µM) 10% | viability, T/C (second compound 0.1 µM, first compound 0.03 µM) 10.6% | viability, T/C (second compound 0.1 µM, first compound 0.0949 µM) 6.8% | viability, T/C (second compound 0.1 µM, first compound 0.3 µM) 4.77% | viability, T/C (second compound 0.316 µM, first compound 0.003 µM) 9.46% | viability, T/C (second compound 0.316 µM, first compound 0.00949 µM) 9.6% | viability, T/C (second compound 0.316 µM, first compound 0.03 µM) 11.1% | viability, T/C (second compound 0.316 µM, first compound 0.0949 µM) 7.49% | viability, T/C (second compound 0.316 µM, first compound 0.3 µM) 5.37% | viability, T/C (second compound 1 µM, first compound 0.00949 µM) 9.93% | viability, T/C (second compound 1 µM, first compound 0.03 µM) 9.14% | viability, T/C (second compound 1 µM, first compound 0.0949 µM) 7.31% | viability, T/C (second compound 1 µM, first compound 0.3 µM) 3.84% | viability, T/C (second compound 3.16 µM, first compound 0.00949 µM) 10.8% | viability, T/C (second compound 3.16 µM, first compound 0.03 µM) 10.1% | viability, T/C (second compound 3.16 µM, first compound 0.0949 µM) 8.03% | viability, T/C (second compound 3.16 µM, first compound 0.3 µM) 3.03% | viability, T/C (second compound 10 µM, first compound 0.03 µM) 11.5% | viability, T/C (second compound 10 µM, first compound 0.0949 µM) 9.82% | viability, T/C (second compound 10 µM, first compound 0.3 µM) 3.85%
< 0.949 nM: IC50 (second compound 0.1 µM) | IC50 (second compound 0.316 µM) | IC50 (second compound 1 µM) | IC50 (second compound 3.16 µM) | IC50 (second compound 10 µM)

CC1(C)CCC(CN2CCN(c3ccc(C(=O)NS(=O)(=O)c4ccc(NCC5CCOCC5)c([N+](=O)[O-])c4)c(Oc4cnc5[nH]ccc5c4)c3)CC2)=C(c2ccc(Cl)cc2)C1 + CNC(=O)c1ccc(Nc2nc(OC3CCCC3)c3c(-c4ccc5nc(C)oc5c4)c[nH]c3n2)c(OC)c1
< 31.6 nM: IC50 (second compound 0.1 µM) | IC50 (second compound 0.316 µM) | IC50 (second compound 1 µM) | IC50 (second compound 3.16 µM) | IC50 (second compound 10 µM)
1390 nM: IC50 (second compound 0.0316 µM)
active: viability, T/C (second compound 0.0316 µM, first compound 10 µM) 7.81% | viability, T/C (second compound 0.316 µM, first compound 0.1 µM) 10.9% | viability, T/C (second compound 0.316 µM, first compound 0.316 µM) 10.2% | viability, T/C (second compound 0.316 µM, first compound 1 µM) 9.51% | viability, T/C (second compound 0.316 µM, first compound 3.16 µM) 8.53% | viability, T/C (second compound 0.316 µM, first compound 10 µM) 6.4% | viability, T/C (second compound 1 µM, first compound 0.0316 µM) 7.73% | viability, T/C (second compound 1 µM, first compound 0.1 µM) 8.42% | viability, T/C (second compound 1 µM, first compound 0.316 µM) 10.8% | viability, T/C (second compound 1 µM, first compound 1 µM) 10.6% | viability, T/C (second compound 1 µM, first compound 3.16 µM) 9.13% | viability, T/C (second compound 1 µM, first compound 10 µM) 6.23% | viability, T/C (second compound 3.16 µM, first compound 0.0316 µM) 8.9% | viability, T/C (second compound 3.16 µM, first compound 0.1 µM) 11.5% | viability, T/C (second compound 3.16 µM, first compound 0.316 µM) 10.7% | viability, T/C (second compound 3.16 µM, first compound 1 µM) 10.2% | viability, T/C (second compound 3.16 µM, first compound 3.16 µM) 9.43% | viability, T/C (second compound 3.16 µM, first compound 10 µM) 6.44%
inactive: viability, T/C (second compound 0.0316 µM, first compound 0.0316 µM) 55.4% | viability, T/C (second compound 0.0316 µM, first compound 0.1 µM) 54.7% | viability, T/C (second compound 0.0316 µM, first compound 0.316 µM) 51.1% | viability, T/C (second compound 0.0316 µM, first compound 1 µM) 55.7% | viability, T/C (second compound 0.0316 µM, first compound 3.16 µM) 39.5% | viability, T/C (second compound 0.1 µM, first compound 0.0316 µM) 9.96% | viability, T/C (second compound 0.1 µM, first compound 0.1 µM) 10.7% | viability, T/C (second compound 0.1 µM, first compound 0.316 µM) 12.1% | viability, T/C (second compound 0.1 µM, first compound 1 µM) 11.7% | viability, T/C (second compound 0.1 µM, first compound 3.16 µM) 11.5% | viability, T/C (second compound 0.1 µM, first compound 10 µM) 6.36% | viability, T/C (second compound 0.316 µM, first compound 0.0316 µM) 10% | viability, T/C (second compound 10 µM, first compound 0.0316 µM) 12.1% | viability, T/C (second compound 10 µM, first compound 0.1 µM) 9.87% | viability, T/C (second compound 10 µM, first compound 0.316 µM) 10.2% | viability, T/C (second compound 10 µM, first compound 1 µM) 11.4% | viability, T/C (second compound 10 µM, first compound 3.16 µM) 12.4% | viability, T/C (second compound 10 µM, first compound 10 µM) 11.9%
